Patent US11512079B2, “Heterocycle substituted pyridine derivative antifungal agents” (Amplyx Pharmaceuticals, Inc., priority 2017, dated 2022)
In brackets after ≈: the same amount, converted by molar mass.

Assays:
Assay type in all cases: cell-based
[1] = tested on: Rhizomucor pusillus 46342; test: In vitro antifungal assay (Example IX), microdilution broth, MEC; conditions: minimum effective concentration (shortening of hyphae), 35° C., 40-48 h, RPMI1640
Method in brief: (§1)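 Read-out is the minimum effective concentration: lowest compound level causing shorter hyphae than in DMSO controls, echinocandin-style. Broth microdilution used conidia or spores harvested from agar plates, cleared of mycelium and clumps, at a final 1-2×10^4 spores/mL in RPMI1640.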

[2] = tested on: Aspergillus fumigatus MYA3626; test: as above; conditions: minimum effective concentration (shortening of hyphae), 35° C., 40-48 h, RPMI1640
Method in brief: as §1

Cryptococcus gattii = test: In vitro antifungal assay (Example IX), microdilution broth, MIC; conditions: minimum inhibitory concentration (≥50% inhibition), 35° C., 72 h (Cryptococcus), RPMI1640
Method in brief: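 MIC was determined from OD600 after 72 h at 35 °C for Cryptococcus, in RPMI1640 inoculated at 2.5×10^3 cells/mL. Compounds were tested as a 2-fold series from 2 to 0.0019 μg/mL final, added from DMSO intermediates at a 100-fold dilution.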

Candida albicans 90028 = test: as above; conditions: minimum inhibitory concentration (≥50% inhibition), 35° C., 40-48 h, RPMI1640
Method in brief: (§2)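 Yeast inocula (2.5×10^3 cells/mL, RPMI1640) were exposed to twofold compound series reaching 2-0.0019 μg/mL final, per CLSI yeast methodology. Incubation at 35° C. ran 40-48 h for Candida albicans 90028 and 72 h for Cryptococcus neoformans H99. MIC endpoints were confirmed by absorbance at 600 nm.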

[3] = tested on: Cryptococcus neoformans H99; test: as above; conditions: minimum inhibitory concentration (≥50% inhibition), 35° C., 72 h, RPMI1640
Method in brief: as §2

Structure (SMILES) | minimal effective concentration [1] [µg/mL] | minimal effective concentration [2] [µg/mL] | MIC (Cryptococcus gattii) [µg/mL] | MIC (Candida albicans 90028) [µg/mL] | MIC [3] [µg/mL]
Nc1ncccc1-c1cc(Cc2ccc(Cn3cncn3)cc2)no1 [compound 199, 3-(3-(4-((1H-1,2,4-triazol-1-yl)methyl)benzyl)isoxazol-5-yl)pyridin-2-amine] | > 1 | > 1 | > 1 | > 1 | > 1
COc1cc(F)cc(NCc2ccc(Cc3cc(-c4cccnc4N)on3)cc2)c1 [compound 201, 3-(3-(4-(((3-fluoro-5-methoxyphenyl)amino)methyl)benzyl)isoxazol-5-yl)pyridin-2-amine] | > 1 | 0.1 to 1 | > 1 | 0.1 to 1 (≈ 0.247 to 2.47 µM) | 0.1 to 1 (≈ 0.247 to 2.47 µM)
Nc1ncccc1-c1cc(Cc2ccc(OCC3CC3)nc2)no1 [compound 43, 3-(3-((6-(cyclopropylmethoxy)pyridin-3-yl)methyl)isoxazol-5-yl)pyridin-2-amine] | 0.1 to 1 | 0.01 to 0.1 | 0.01 to 0.1 (≈ 0.031 to 0.31 µM) | 0.1 to 1 (≈ 0.31 to 3.1 µM) | 0.01 to 0.1 (≈ 0.031 to 0.31 µM)
Nc1ncccc1-c1cc(Cc2ccc(OCc3cnccn3)nc2)no1 [compound 47, 3-(3-((6-(pyrazin-2-ylmethoxy)pyridin-3-yl)methyl)isoxazol-5-yl)pyridin-2-amine] | 0.1 to 1 | 0.1 to 1 | 0.1 to 1 (≈ 0.277 to 2.77 µM) | 0.01 to 0.1 (≈ 0.0277 to 0.277 µM) | 0.1 to 1 (≈ 0.277 to 2.77 µM)
Nc1ncccc1-c1cc(Cc2ccc(Cc3cccnc3)cc2)no1 [compound 9, 3-(3-(4-(pyridin-3-ylmethyl)benzyl)isoxazol-5-yl)pyridin-2-amine] | 0.1 to 1 | 0.1 to 1 | 0.01 to 0.1 (≈ 0.0292 to 0.292 µM) | 0.01 to 0.1 (≈ 0.0292 to 0.292 µM) | 0.1 to 1 (≈ 0.292 to 2.92 µM)
Nc1ncccc1-c1cc(Cc2ccc(/C=C/C3CCCCC3)cc2)no1 [compound 99, (E)-3-(3-(4-(2-cyclohexylvinyl)benzyl)isoxazol-5-yl)pyridin-2-amine] | > 1 | 0.1 to 1 | 0.1 to 1 (≈ 0.278 to 2.78 µM) | > 1 | 0.1 to 1 (≈ 0.278 to 2.78 µM)
Nc1ncccc1-c1cc(Cc2ccc(OCc3ccc(Cl)s3)nc2)no1 [compound 221, 3-(3-((6-((5-chlorothiophen-2-yl)methoxy)pyridin-3-yl)methyl)isoxazol-5-yl)pyridin-2-amine] | 0.1 to 1 | 0.01 to 0.1 | 0.1 to 1 (≈ 0.251 to 2.51 µM) | 0.1 to 1 (≈ 0.251 to 2.51 µM) | 0.01 to 0.1 (≈ 0.0251 to 0.251 µM)
Nc1ncccc1-c1cc(Cc2ccc(OCc3cccc(Br)n3)nc2)no1 [compound 223, 3-(3-((6-((6-bromopyridin-2-yl)methoxy)pyridin-3-yl)methyl)isoxazol-5-yl)pyridin-2-amine] | > 1 | 0.01 to 0.1 | 0.1 to 1 (≈ 0.228 to 2.28 µM) | 0.01 to 0.1 (≈ 0.0228 to 0.228 µM) | 0.1 to 1 (≈ 0.228 to 2.28 µM)
Nc1ncccc1-c1cc(Cc2ccc(OCCn3cccn3)nc2)no1 [Example 156, 3-(3-((6-(2-(1H-pyrazol-1-yl)ethoxy)pyridin-3-yl)methyl)isoxazol-5-yl)pyridin-2-amine] | > 1 | > 1 | > 1 | 0.1 to 1 (≈ 0.276 to 2.76 µM) | 0.1 to 1 (≈ 0.276 to 2.76 µM)
Nc1ncccc1-c1cc(Cc2ccc(OCc3ccccn3)cc2)no1 [Example 140, 3-(3-(4-(pyridin-2-ylmethoxy)benzyl)isoxazol-5-yl)pyridin-2-amine] | 0.1 to 1 | 0.01 to 0.1 | 0.01 to 0.1 (≈ 0.0279 to 0.279 µM) | ≤ 0.01 | 0.01 to 0.1 (≈ 0.0279 to 0.279 µM)
Nc1ncccc1-c1cc(Cc2ccc(CNc3ccnc(F)c3)cc2)no1 [compound 70, 3-(3-(4-(((2-fluoropyridin-4-yl)amino)methyl)benzyl)isoxazol-5-yl)pyridin-2-amine] | > 1 | 0.01 to 0.1 | 0.1 to 1 (≈ 0.266 to 2.66 µM) | 0.1 to 1 (≈ 0.266 to 2.66 µM) | 0.1 to 1 (≈ 0.266 to 2.66 µM)
Nc1ncccc1-c1cc(Cc2ccc(Cc3cnoc3)cc2)no1 [compound 14, 3-(3-(4-(isoxazol-4-ylmethyl)benzyl)isoxazol-5-yl)pyridin-2-amine] | 0.1 to 1 | 0.01 to 0.1 | 0.1 to 1 (≈ 0.301 to 3.01 µM) | 0.1 to 1 (≈ 0.301 to 3.01 µM) | 0.1 to 1 (≈ 0.301 to 3.01 µM)
Nc1ncccc1-c1cc(Cc2ccc(OCCc3ccccn3)nc2)no1 [compound 39, 3-(3-((6-(2-(pyridin-2-yl)ethoxy)pyridin-3-yl)methyl)isoxazol-5-yl)pyridin-2-amine] | > 1 | 0.1 to 1 | 0.1 to 1 (≈ 0.268 to 2.68 µM) | 0.1 to 1 (≈ 0.268 to 2.68 µM) | 0.1 to 1 (≈ 0.268 to 2.68 µM)
Nc1ncccc1-c1cc(Cc2ccc(Cc3ccoc3)cc2)no1 [compound 120, 3-(3-(4-(furan-3-ylmethyl)benzyl)isoxazol-5-yl)pyridin-2-amine] | 0.1 to 1 | ≤ 0.01 | 0.01 to 0.1 (≈ 0.0302 to 0.302 µM) | 0.01 to 0.1 (≈ 0.0302 to 0.302 µM) | 0.01 to 0.1 (≈ 0.0302 to 0.302 µM)
Nc1ncccc1-c1cc(Cc2ccc(Cc3cccnc3F)cc2)no1 [compound 69, 3-(3-(4-((2-fluoropyridin-3-yl)methyl)benzyl)isoxazol-5-yl)pyridin-2-amine] | 0.1 to 1 | 0.01 to 0.1 | 0.01 to 0.1 (≈ 0.0277 to 0.277 µM) | 0.01 to 0.1 (≈ 0.0277 to 0.277 µM) | 0.01 to 0.1 (≈ 0.0277 to 0.277 µM)
Nc1ncccc1-c1cc(Cc2ccc(CNc3ncccn3)cc2)no1 [compound 32, N-(4-((5-(2-aminopyridin-3-yl)isoxazol-3-yl)methyl)benzyl)pyrimidin-2-amine] | 0.1 to 1 | 0.01 to 0.1 | 0.1 to 1 (≈ 0.279 to 2.79 µM) | 0.01 to 0.1 (≈ 0.0279 to 0.279 µM) | 0.1 to 1 (≈ 0.279 to 2.79 µM)
Nc1ncccc1-c1cc(Cc2ccnc(OCCc3cccc(F)c3)c2)no1 [Example 146, 3-(3-((2-(3-fluorophenethoxy)pyridin-4-yl)methyl)isoxazol-5-yl)pyridin-2-amine] | > 1 | > 1 | 0.1 to 1 (≈ 0.256 to 2.56 µM) | 0.1 to 1 (≈ 0.256 to 2.56 µM) | 0.1 to 1 (≈ 0.256 to 2.56 µM)
Nc1ncccc1-c1cc(Cc2ccc(Oc3ncc(F)cc3F)cc2)no1 [compound 242, 3-(3-(4-((3,5-difluoropyridin-2-yl)oxy)benzyl)isoxazol-5-yl)pyridin-2-amine] | 0.1 to 1 | 0.01 to 0.1 | ≤ 0.01 | 0.01 to 0.1 (≈ 0.0263 to 0.263 µM) | 0.01 to 0.1 (≈ 0.0263 to 0.263 µM)
Nc1ncccc1-c1cc(Cc2cnc(OCc3ccccc3)c(F)c2)no1 [compound 257, 3-(3-((6-(benzyloxy)-5-fluoropyridin-3-yl)methyl)isoxazol-5-yl)pyridin-2-amine] | 0.1 to 1 | 0.01 to 0.1 | > 1 | 0.01 to 0.1 (≈ 0.0266 to 0.266 µM) | 0.1 to 1 (≈ 0.266 to 2.66 µM)
Nc1ncccc1-c1cc(Cc2ccc(Cc3ccc(F)o3)cc2)no1 [compound 124, 3-(3-(4-((5-fluorofuran-2-yl)methyl)benzyl)isoxazol-5-yl)pyridin-2-amine] | 0.01 to 0.1 | 0.01 to 0.1 | 0.01 to 0.1 (≈ 0.0286 to 0.286 µM) | 0.01 to 0.1 (≈ 0.0286 to 0.286 µM) | 0.01 to 0.1 (≈ 0.0286 to 0.286 µM)
Nc1ncccc1-c1cc(Cc2ccc(Oc3ncccn3)cc2)no1 [compound 243, 3-(3-(4-(pyrimidin-2-yloxy)benzyl)isoxazol-5-yl)pyridin-2-amine] | > 1 | 0.1 to 1 | 0.1 to 1 (≈ 0.29 to 2.9 µM) | 0.1 to 1 (≈ 0.29 to 2.9 µM) | 0.1 to 1 (≈ 0.29 to 2.9 µM)
Nc1ncccc1-c1cc(Cc2ccc(Oc3ccc(F)cn3)cc2)no1 [compound 246, 3-(3-(4-((5-fluoropyridin-2-yl)oxy)benzyl)isoxazol-5-yl)pyridin-2-amine] | 0.1 to 1 | 0.01 to 0.1 | 0.1 to 1 (≈ 0.276 to 2.76 µM) | 0.1 to 1 (≈ 0.276 to 2.76 µM) | 0.01 to 0.1 (≈ 0.0276 to 0.276 µM)
Nc1ncccc1-c1cc(Cc2ccnc(OCc3ccccc3F)c2)no1 [Example 149, 3-(3-((2-((2-fluorobenzyl)oxy)pyridin-4-yl)methyl)isoxazol-5-yl)pyridin-2-amine] | > 1 | 0.01 to 0.1 | 0.1 to 1 (≈ 0.266 to 2.66 µM) | 0.01 to 0.1 (≈ 0.0266 to 0.266 µM) | 0.01 to 0.1 (≈ 0.0266 to 0.266 µM)
COc1cc(COc2ccc(Cc3cc(-c4cccnc4N)on3)cn2)c(F)cn1 [compound 207, 3-(3-((6-((5-fluoro-2-methoxypyridin-4-yl)methoxy)pyridin-3-yl)methyl)isoxazol-5-yl)pyridin-2-amine] | > 1 | 0.01 to 0.1 | 0.1 to 1 (≈ 0.245 to 2.45 µM) | 0.1 to 1 (≈ 0.245 to 2.45 µM) | 0.01 to 0.1 (≈ 0.0245 to 0.245 µM)
Nc1ncccc1-c1cc(Cc2ccc(OCc3ncco3)nc2)no1 [compound 53, 3-(3-((6-(oxazol-2-ylmethoxy)pyridin-3-yl)methyl)isoxazol-5-yl)pyridin-2-amine] | 0.1 to 1 | 0.1 to 1 | 0.1 to 1 (≈ 0.286 to 2.86 µM) | 0.1 to 1 (≈ 0.286 to 2.86 µM) | 0.1 to 1 (≈ 0.286 to 2.86 µM)
Nc1ncccc1-c1cc(Cc2ccc(OCCc3ccccc3)nc2)no1 [compound 78, 3-(3-((6-phenethoxypyridin-3-yl)methyl)isoxazol-5-yl)pyridin-2-amine] | 0.1 to 1 | 0.1 to 1 | 0.01 to 0.1 (≈ 0.0269 to 0.269 µM) | 0.01 to 0.1 (≈ 0.0269 to 0.269 µM) | 0.01 to 0.1 (≈ 0.0269 to 0.269 µM)
